Earlier results on 1 compound are cited in patent US20150272920A1, “METHOD FOR TREATING OBESITY WITH ANTI-OBESITY FORMULATIONS AND OMEGA 3 FATTY ACIDS FOR THE REDUCTION OF BODY WEIGHT IN CARDIOVASCULAR DISEASE PATIENTS (CVD) AND DIABETICS” (PIVOTAL THERAPEUTICS INC., priority 2014, published 2015).

In the data set the target is CB1R (Homo sapiens, UniProt P21554). To be noted: in vivo.
CB1R, sequence (P21554 whole entry): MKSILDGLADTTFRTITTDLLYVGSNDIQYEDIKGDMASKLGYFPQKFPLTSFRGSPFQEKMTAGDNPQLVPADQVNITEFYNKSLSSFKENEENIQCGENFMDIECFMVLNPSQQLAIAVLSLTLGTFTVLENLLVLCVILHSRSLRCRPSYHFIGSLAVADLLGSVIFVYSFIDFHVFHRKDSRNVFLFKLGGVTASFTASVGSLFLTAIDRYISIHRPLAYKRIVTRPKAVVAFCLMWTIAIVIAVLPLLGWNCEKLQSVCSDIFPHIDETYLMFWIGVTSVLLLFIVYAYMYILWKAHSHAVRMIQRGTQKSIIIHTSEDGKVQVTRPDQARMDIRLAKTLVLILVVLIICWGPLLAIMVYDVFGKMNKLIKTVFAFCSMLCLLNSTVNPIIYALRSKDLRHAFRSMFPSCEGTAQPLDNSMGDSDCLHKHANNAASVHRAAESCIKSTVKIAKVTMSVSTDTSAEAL

Take `CCNC1(C(N)=O)CCN(c2ncnc3c2nc(-c2ccccc2Cl)n3-c2ccc(Cl)cc2)CC1.Cl` [CP-945,598]: the “Reason for failure of phase III clinical trials (adverse reactions)” value was “psychiatric adverse reactions, including severe depression and anxiety”.
